Laboratory results taken from the CheMixHub drug solubility set.

Assay: xn = mol fraction of the nth substance listed, in the solute-free solvent

O=C(CC(=O)c1ccccc1)c1ccccc1 + CCO + O
solubility (g/100 g solution)
Settings | 278.15 K | 283.15 K | 288.15 K | 293.15 K | 298.15 K | 303.15 K | 308.15 K | 313.15 K | 318.15 K
x2 = 0.2 | 0.0116 | 0.0406 | 0.0595 | 0.069 | 0.0786 | 0.0881 | 0.0946 | 0.177 | 0.129
x2 = 0.4 | 0.2 | 0.505 | 0.754 | 0.88 | 1.09 | 1.28 | 1.97 | 2.5 | 2.96
x2 = 0.6 | 0.577 | 0.706 | 0.904 | 1.13 | 1.47 | 2 | 2.12 | 2.61 | 3.89
x2 = 0.8 | 1.25 | 2.11 | 1.75 | 2.39 | 3.08 | 3.46 | 4.26 | 6.03 | 8.9

O=c1ccc2ccccc2o1 + CCO + O
solubility (g/100 g solution)
Settings | 278.15 K | 283.15 K | 288.15 K | 293.15 K | 298.15 K | 303.15 K | 308.15 K | 313.15 K | 318.15 K
x2 = 0.1429 | 0.201 | 0.363 | 0.646 | 1.12 | 1.9 | 3.1 | 4.94 | 7.56 | 12.1
x2 = 0.2857 | 0.809 | 1.49 | 2.82 | 4.84 | 8.59 | 14.1 | 23.6 | 36.2 | 52.4
x2 = 0.4286 | 2.35 | 4.02 | 6.77 | 10.7 | 17.5 | 25.7 | 37.2 | 51.5 | 65.7
x2 = 0.5714 | 3.44 | 5.45 | 9.19 | 13.8 | 21.1 | 30.1 | 41.7 | 56 | 70
x2 = 0.7143 | 3.65 | 5.85 | 9.47 | 14.4 | 21 | 30.5 | 40.9 | 54.9 | 68.7
x2 = 0.8571 | 3.18 | 5.14 | 8.31 | 12.7 | 19.3 | 28.4 | 38.2 | 51.8 | 66.4
